Laboratory results taken from US7829325B2, “Drug testing with bio-artificial organ slices including for example those derived from liver” (HepaHope, Inc., priority 2003, dated 2010).

Assays:
[1] = tested on: liver slices; conditions: 20 mg loading dose; all trials; in presence of HL 100; FIG. 5
[2] = tested on: liver slices
[3] = 2 mg lidocaine dose, continuous and intermittent (1:3) perfusion, in presence of HL 100, FIG. 3A

SMILES: N [ammonia]
- time of maximal ammonia clearance [1]: approximately 30 minutes

SMILES: CCN(CC)CC(=O)Nc1c(C)cccc1C [lidocaine]
- lidocaine levels within 30 minutes ([2]; 2 mg dose, 6 hour trials and continuous perfusion 24 hour trial, exposed to HL 100, FIG. 3B): approximately 0.8 μg
- level of lidocaine at 120 minutes [2, 3]: approximately 0.5 :g
- level of lidocaine at approximately 30 minutes after lidocaine loading [2, 3]: approximately 0.9 μg
